Source: patent publication US6737383B1, “Herbicidal oxadiazolidines” (priority 1999, dated 2004)

Columns and labels:
Details in all cases: Preemergence, 0 to 100 scale, 0 no injury, 100 complete control
[1] = system: bermuda-grass; assay: Test D bermudagrass; format: in vivo, Cynodon dactylon
Summary of the method: (§1)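 Greenhouse pots, sandy loam, single species per pot. Preemergence tests: soil-surface application ≤1 day after planting. Compound formulated in non-phytotoxic solvent with surfactant. Visual rating 14–21 DAT, scale 0–100.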

[2] = system: itchgrass; assay: Test D itchgrass; format: in vivo, Rottboellia exaltata
Summary of the method: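 Scoring used a 0–100 visual injury scale, with 0 meaning no effect and 100 complete control, assessed 14–21 days after application alongside untreated pots. Preemergence treatments went onto sandy loam surfaces of separately potted seeds within a day of sowing.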

[3] = system: common ragweed; assay: Test D common ragweed; format: in vivo, Ambrosia elatior
Source text: (§2) Seeds, tubers, or plant parts of Alexandergrass (Brachiaria plantaginea), bermuda-grass (Cynodon dactylon), common pursiane (Portulaca oleracea), common ragweed (Ambrosia elatior), common groundsel (Senecio vulgaris), dallisgrass (Paspalum dilatatum), goosegrass (Eleusine indica), guineagrass (Panicum maximum), itchgrass (Rottboellia exaltata), Johnson grass (Sorghum halepense), large crabgrass (Digitaria sanguinalis), pitted morningglory (Ipomoea lacunosa), purple nutsedge (Cyperus rotundus), sandbur (Cenchrus echinatus), sourgrass (Trichachne insularis), Spanishneedles (Bidens bipinnata), surinam grass (Brachiaria decumbens) and tall mallow (Malva sylvestris) were planted into greenhouse pots of flats containing greenhouse planting medium. Plant species were grown in separate pots or individual compartments. Preemergence applications were made within one day of planting the seed or plant part.
(§3) Test chemicals were formulated in a non-phytotoxic solvent mixture which included a surfactant and applied preemergence to the surface of the pot containing seeds in a sandy loam soil. Untreated control pots and treated pots were placed in the greenhouse for growth and visually evaluated for injury 14 to 21 days after herbicide application. Plant response ratings, summarized in Table C, are based on a 0 to 100 scale where 0 is no injury and 100 is complete control. A dash (−) response means no test result.

[4] = system: Spanishneedles; assay: Test D Spanishneedles; format: in vivo, Bidens bipinnata
Source text: as §2, §3

[5] = system: large crabgrass; assay: Test D large crabgrass; format: in vivo, Digitaria sanguinalis
Summary of the method: as §1

[6] = system: pitted morningglory; assay: Test D pitted morningglory; format: in vivo, Ipomoea lacunosa
Summary of the method: as §1

[7] = system: dallisgrass; assay: Test D dallisgrass; format: in vivo, Paspalum dilatatum
Source text: as §2, §3

[8] = system: sandbur; assay: Test D sandbur; format: in vivo, Cenchrus echinatus
Summary of the method: as §1

[9] = system: surinam grass; assay: Test D surinam grass; format: in vivo, Brachiaria decumbens
Source text: as §2, §3

[10] = system: tall mallow; assay: Test D tall mallow; format: in vivo, Malva sylvestris
Source text: as §2, §3

[11] = system: guineagrass; assay: Test D guineagrass; format: in vivo, Panicum maximum
Source text: as §2, §3

[12] = system: purple nutsedge; assay: Test D purple nutsedge; format: in vivo, Cyperus rotundus
Summary of the method: as §1

[13] = system: Johnson grass; assay: Test D Johnson grass; format: in vivo, Sorghum halepense
Source text: as §2, §3

[14] = system: common pursiane; assay: Test D common purslane; format: in vivo, Portulaca oleracea
Source text: as §2, §3

Cc1cccc(C)c1-n1c(=O)on(C(=O)N(c2ccc(F)cc2)C(C)C)c1=O [Compound 18]
Plant response rating, Bermudagrass ([1]; Rate 16 g/ha): 40 | Plant response rating, Bermudagrass ([1]; Rate 32 g/ha): 60 | Plant response rating, Bermudagrass ([1]; Rate 64 g/ha): 85 | Plant response rating, Bermudagrass ([1]; Rate 125 g/ha): 100 | Plant response rating, Itchgrass ([2]; Rate 16 g/ha): 0 | Plant response rating, Itchgrass ([2]; Rate 32 g/ha): 0 | Plant response rating, Itchgrass ([2]; Rate 64 g/ha): 0 | Plant response rating, Itchgrass ([2]; Rate 125 g/ha): 0 | Plant response rating, C. ragweed ([3]; Rate 16 g/ha): 0 | Plant response rating, C. ragweed ([3]; Rate 32 g/ha): 0 | Plant response rating, C. ragweed ([3]; Rate 64 g/ha): 0 | Plant response rating, C. ragweed ([3]; Rate 125 g/ha): 0 | Plant response rating, Spanishneedles ([4]; Rate 16 g/ha): 0 | Plant response rating, Spanishneedles ([4]; Rate 32 g/ha): 0 | Spanishneedles plant response rating ([4]; Rate 64 g/ha): 0 | Spanishneedles plant response rating ([4]; Rate 125 g/ha): 0 | Plant response rating Large crabgrass ([5]; Rate 16 g/ha): 0 | Plant response rating Large crabgrass ([5]; Rate 32 g/ha): 0 | Plant response rating Large crabgrass ([5]; Rate 64 g/ha): 98 | Plant response rating Large crabgrass ([5]; Rate 125 g/ha): 100 | Plant response rating, P. morninglory ([6]; Rate 16 g/ha): 0 | Plant response rating, P. morninglory ([6]; Rate 32 g/ha): 0 | Plant response rating, P. morninglory ([6]; Rate 64 g/ha): 0 | Plant response rating, P. morninglory ([6]; Rate 125 g/ha): 0 | Plant response rating, Dallisgrass ([7]; Rate 16 g/ha): 0 | Plant response rating, Dallisgrass ([7]; Rate 32 g/ha): 0 | Plant response rating, Dallisgrass ([7]; Rate 64 g/ha): 85 | Plant response rating, Dallisgrass ([7]; Rate 125 g/ha): 100 | Plant response rating, Sandbur ([8]; Rate 16 g/ha): 0 | Plant response rating, Sandbur ([8]; Rate 32 g/ha): 0 | Sandbur plant response rating ([8]; Rate 64 g/ha): 0 | Sandbur plant response rating ([8]; Rate 125 g/ha): 0 | Plant response rating, Surinam grass ([9]; Rate 16 g/ha): 0 | Plant response rating, Surinam grass ([9]; Rate 32 g/ha): 0 | Surinam grass plant response rating ([9]; Rate 64 g/ha): 0 | Surinam grass plant response rating ([9]; Rate 125 g/ha): 20 | Plant response rating, Tall Mallow ([10]; Rate 16 g/ha): 0 | Plant response rating, Tall Mallow ([10]; Rate 32 g/ha): 0 | Tall Mallow plant response rating ([10]; Rate 64 g/ha): 0 | Tall Mallow plant response rating ([10]; Rate 125 g/ha): 0 | Plant response rating, Guineagrass ([11]; Rate 16 g/ha): 0 | Plant response rating, Guineagrass ([11]; Rate 32 g/ha): 0 | Plant response rating, Guineagrass ([11]; Rate 64 g/ha): 30 | Plant response rating, Guineagrass ([11]; Rate 125 g/ha): 65 | Plant response rating, Purple nutsedge ([12]; Rate 16 g/ha): 0 | Plant response rating, Purple nutsedge ([12]; Rate 32 g/ha): 0 | Purple nutsedge plant response rating ([12]; Rate 64 g/ha): 0 | Purple nutsedge plant response rating ([12]; Rate 125 g/ha): 0 | Plant response rating Johnsongrass ([13]; Rate 16 g/ha): 0 | Plant response rating Johnsongrass ([13]; Rate 32 g/ha): 0 | Plant response rating Johnsongrass ([13]; Rate 64 g/ha): 0 | Plant response rating Johnsongrass ([13]; Rate 125 g/ha): 0 | Plant response rating, C. purslane ([14]; Rate 16 g/ha): 0 | Plant response rating, C. purslane ([14]; Rate 32 g/ha): 0 | Plant response rating, C. purslane ([14]; Rate 64 g/ha): 0 | Plant response rating, C. purslane ([14]; Rate 125 g/ha): 0

CCCn1c(=O)on(C(=O)N(c2ccc(F)cc2F)C(C)C)c1=O [Compound 130]
Plant response rating, Bermudagrass ([1]; Rate 64 g/ha): 100 | Plant response rating, Itchgrass ([2]; Rate 64 g/ha): 80 | Plant response rating, C. ragweed ([3]; Rate 64 g/ha): 30 | Spanishneedles plant response rating ([4]; Rate 64 g/ha): 60 | Plant response rating Large crabgrass ([5]; Rate 64 g/ha): 100 | Plant response rating, P. morninglory ([6]; Rate 64 g/ha): 65 | Plant response rating, Dallisgrass ([7]; Rate 64 g/ha): 100 | Sandbur plant response rating ([8]; Rate 64 g/ha): 100 | Surinam grass plant response rating ([9]; Rate 64 g/ha): 80 | Tall Mallow plant response rating ([10]; Rate 64 g/ha): 85 | Plant response rating, Guineagrass ([11]; Rate 64 g/ha): 100 | Purple nutsedge plant response rating ([12]; Rate 64 g/ha): 0 | Plant response rating Johnsongrass ([13]; Rate 64 g/ha): 65 | Plant response rating, C. purslane ([14]; Rate 64 g/ha): 0
